Measurements: ChEMBL document CHEMBL5550161, “Discovery of novel small molecules targeting the USP21/JAK2/STAT3 axis for the treatment of triple-negative breast cancer” (Eur J Med Chem, 2024)

Tests used:
MCF7 = assay: Anti-proliferative activity against human MCF7 cells assessed as cell growth inhibition incubated for 72 hrs by MTT assay; format: functional, cell-based; details: MCF7, 72 h
MDA-MB-231 = assay: Anti-proliferative activity against human MDA-MB-231 cells assessed as cell growth inhibition incubated for 72 hrs by MTT assay; format: functional, cell-based; details: MDA-MB-231, 72 h
Hs-578T = assay: Anti-proliferative activity against human Hs-578T cells assessed as cell growth inhibition incubated for 72 hrs by MTT assay; format: functional, cell-based
HCC1806 = assay: Anti-proliferative activity against human HCC1806 cells assessed as cell growth inhibition incubated for 72 hrs by MTT assay; format: functional, cell-based; details: HCC1806, 72 h
[1] = target: Tyrosine-protein kinase JAK2 (Homo sapiens, UniProt O60674); assay: Inhibition of JAK2 (unknown origin)
Tyrosine-protein kinase JAK2, sequence (O60674 whole entry): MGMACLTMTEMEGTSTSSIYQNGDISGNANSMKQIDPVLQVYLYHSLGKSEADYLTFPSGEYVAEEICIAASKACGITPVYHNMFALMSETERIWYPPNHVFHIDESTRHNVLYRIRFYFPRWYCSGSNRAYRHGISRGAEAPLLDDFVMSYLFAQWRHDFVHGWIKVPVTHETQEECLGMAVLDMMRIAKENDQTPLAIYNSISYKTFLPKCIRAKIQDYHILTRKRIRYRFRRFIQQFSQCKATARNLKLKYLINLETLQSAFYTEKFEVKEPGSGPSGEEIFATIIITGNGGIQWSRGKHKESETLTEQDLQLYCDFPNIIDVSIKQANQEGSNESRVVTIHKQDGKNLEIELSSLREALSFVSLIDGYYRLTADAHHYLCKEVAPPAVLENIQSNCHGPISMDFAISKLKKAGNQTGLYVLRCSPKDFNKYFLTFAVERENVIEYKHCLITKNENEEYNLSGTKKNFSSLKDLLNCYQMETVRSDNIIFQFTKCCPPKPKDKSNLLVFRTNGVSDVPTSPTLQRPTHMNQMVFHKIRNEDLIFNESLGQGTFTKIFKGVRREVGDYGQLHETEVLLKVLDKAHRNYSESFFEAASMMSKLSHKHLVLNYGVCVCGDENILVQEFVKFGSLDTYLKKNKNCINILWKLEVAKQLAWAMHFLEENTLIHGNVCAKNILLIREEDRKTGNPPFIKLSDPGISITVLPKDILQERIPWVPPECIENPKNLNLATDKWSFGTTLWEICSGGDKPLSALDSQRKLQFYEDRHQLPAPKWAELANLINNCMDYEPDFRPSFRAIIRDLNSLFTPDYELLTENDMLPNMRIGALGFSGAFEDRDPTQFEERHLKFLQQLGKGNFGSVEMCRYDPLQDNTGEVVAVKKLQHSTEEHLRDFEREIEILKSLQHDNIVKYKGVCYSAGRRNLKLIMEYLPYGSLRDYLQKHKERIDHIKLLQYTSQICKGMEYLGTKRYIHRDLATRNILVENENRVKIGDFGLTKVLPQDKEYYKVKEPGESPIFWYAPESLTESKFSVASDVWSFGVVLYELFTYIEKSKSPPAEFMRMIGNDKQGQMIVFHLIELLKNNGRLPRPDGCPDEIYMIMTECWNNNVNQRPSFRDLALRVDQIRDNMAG

SMILES | IC50 (MCF7) [µM] | IC50 (MDA-MB-231) [µM] | IC50 (HCC1806) [µM] | IC50 [1] [µM] | IC50 (Hs-578T) [µM]
COc1cc(Nc2cc(F)c(F)cc2C(=O)NCCc2c[nH]c3ccccc23)cc(OC)c1OC | > 100 | 41.8 | 8.3 |  | 4.38
COc1cc(Br)c2c(CCNC(=O)c3ccc(F)cc3Nc3cc(OC)c(OC)c(OC)c3)c[nH]c2c1 | > 100 | 58.2 | > 100 |  | > 100
COc1cc(Nc2cc(C(F)(F)F)ccc2C(=O)NCCc2c[nH]c3ccccc23)cc(OC)c1OC | 58.6 | 22.4 | 52.2 |  | 84.3
COc1cc(Nc2cccc(OC)c2C(=O)NCCc2c[nH]c3ccccc23)cc(OC)c1OC | > 100 | > 100 | > 100 |  | > 100
COc1cc(Nc2c(C(=O)NCCc3c[nH]c4ccccc34)cccc2[N+](=O)[O-])cc(OC)c1OC | > 100 | 31.3 | > 100 |  | > 100
COc1cc2[nH]cc(CCNC(=O)c3ccc(F)cc3Nc3cc(OC)c(OC)c(OC)c3)c2cc1OC | 65.8 | 94 | 91.5 |  | > 100
COc1cc(Nc2cccc(Cl)c2C(=O)NCCc2c[nH]c3ccccc23)cc(OC)c1OC | 41.5 | 95.1 | > 100 |  | > 100
COc1cc(Nc2ccccc2C(=O)NCCc2c[nH]c3ccccc23)cc(OC)c1OC | > 100 | 99.7 | 2.41 | > 10 | 2.18
COc1ccc(Nc2cc(OC)c(OC)c(OC)c2)c(C(=O)NCCc2c[nH]c3ccccc23)c1 | > 100 | 82.1 | 29.9 |  | > 100
COc1cc(Nc2cc(F)cc(C)c2C(=O)NCCc2c[nH]c3ccccc23)cc(OC)c1OC | 29.4 | 50.4 | 70.7 |  | > 100
COc1cc(Nc2cccc(F)c2C(=O)NCCc2c[nH]c3ccccc23)cc(OC)c1OC | > 100 | 24.3 | 3.25 |  | 24.5
COc1cc(Nc2ccc(Cl)cc2C(=O)NCCc2c[nH]c3ccccc23)cc(OC)c1OC | > 100 | > 100 | > 100 |  | > 100
COc1cc(Nc2c(F)cc(F)cc2C(=O)NCCc2c[nH]c3ccccc23)cc(OC)c1OC | > 100 | > 100 | > 100 |  | > 100
COc1cc(Nc2cc(F)ccc2C(=O)NCCc2c[nH]c3cc(F)c(F)cc23)cc(OC)c1OC | 50.6 | 1.68 | 20.2 |  | 27.3
COc1cc(Nc2cc(F)ccc2C(=O)NCCc2c[nH]c3c(OC)cccc23)cc(OC)c1OC | > 100 | 20.9 | 2.57 |  | 2.86
COc1cc(Nc2ccc(Br)cc2C(=O)NCCc2c[nH]c3ccccc23)cc(OC)c1OC | > 100 | > 100 | > 100 |  | > 100
COc1cc(Nc2cc(F)ccc2C(=O)NCCc2c[nH]c3cc(C)ccc23)cc(OC)c1OC | 74 | 11.9 | 34.5 |  | > 100
COc1cc(Nc2c(C(=O)NCCc3c[nH]c4ccccc34)ccc(F)c2F)cc(OC)c1OC | 78 | 85.3 | 90 |  | > 100
COc1cc(Nc2c(F)cccc2C(=O)NCCc2c[nH]c3ccccc23)cc(OC)c1OC | > 100 | > 100 | > 100 |  | > 100
COc1cc(Nc2ccc(F)cc2C(=O)NCCc2c[nH]c3ccccc23)cc(OC)c1OC | > 100 | > 100 | 12.5 |  | 55.8
COc1cc(Nc2cccc(C)c2C(=O)NCCc2c[nH]c3ccccc23)cc(OC)c1OC | > 100 | > 100 | > 100 |  | > 100
COc1ccc2c(CCNC(=O)c3ccc(F)cc3Nc3cc(OC)c(OC)c(OC)c3)c[nH]c2c1 | 40.4 | 46.7 | 1.75 |  | > 100
COc1cc(Nc2ccc(C(F)(F)F)cc2C(=O)NCCc2c[nH]c3ccccc23)cc(OC)c1OC | 43.3 | 82.7 | > 100 |  | > 100
COc1cc(C)c2[nH]cc(CCNC(=O)c3ccc(F)cc3Nc3cc(OC)c(OC)c(OC)c3)c2c1 | > 100 | 2.12 | 15.1 |  | 19.8
COc1cc(Nc2cc(F)cc(F)c2C(=O)NCCc2c[nH]c3ccccc23)cc(OC)c1OC | > 100 | 1.66 | 3.14 |  | 1.03
COc1cc(Nc2cccc(C(F)(F)F)c2C(=O)NCCc2c[nH]c3ccccc23)cc(OC)c1OC | 67 | > 100 | > 100 |  | > 100
COc1cc(Nc2c(C)cccc2C(=O)NCCc2c[nH]c3ccccc23)cc(OC)c1OC | > 100 | > 100 | > 100 |  | > 100
COc1cc(Nc2cc(C)c(F)cc2C(=O)NCCc2c[nH]c3ccccc23)cc(OC)c1OC | > 100 | 93.7 | 15 |  | 47.8
COc1cc(Nc2cc(C)ccc2C(=O)NCCc2c[nH]c3ccccc23)cc(OC)c1OC | > 100 | > 100 | 26.5 |  | > 100

Molecules with a lower IC50 (MCF7), results first:

IC50 (MCF7) [µM] | IC50 (MDA-MB-231) [µM] | IC50 (HCC1806) [µM] | IC50 [1] [µM] | SMILES | IC50 (Hs-578T) [µM]
23.6 | 4.66 | 18 |  | COc1ccc2[nH]cc(CCNC(=O)c3ccc(F)cc3Nc3cc(OC)c(OC)c(OC)c3)c2c1 | > 100
23 | 1.47 | 14.2 |  | COc1cc(Nc2cc(F)ccc2C(=O)NCCc2c[nH]c3cc(F)cc(F)c23)cc(OC)c1OC | 26.4
20.6 | 2.96 | 18.2 |  | COc1cc(Nc2cc(F)ccc2C(=O)NCCc2c[nH]c3cccc(OC)c23)cc(OC)c1OC | 34.7
12.2 | 3.08 | 8.46 |  | COc1cc(Nc2cc(F)ccc2C(=O)NCCc2c[nH]c3cc(Cl)ccc23)cc(OC)c1OC | 57.7
11 | 38.6 | 20.2 |  | COc1cc(Nc2cc(F)c(C)cc2C(=O)NCCc2c[nH]c3ccccc23)cc(OC)c1OC | > 100
8.98 | 4.03 | 10.5 |  | COc1cc(Nc2cc(F)ccc2C(=O)NCCc2c[nH]c3c(C(F)(F)F)cccc23)cc(OC)c1OC | 19.4
8.77 | 2.79 | 7.81 |  | COc1cc(Nc2cc(F)ccc2C(=O)NCCc2c[nH]c3ccc(C)cc23)cc(OC)c1OC | 55.5
8.75 | 2.2 | 11.3 |  | COc1cc(Nc2cc(F)ccc2C(=O)NCCc2c[nH]c3ccc(Cl)cc23)cc(OC)c1OC | 41.3
8.65 | 2.94 | 3.46 |  | COc1cc(Nc2cc(F)ccc2C(=O)NCCc2c[nH]c3ccc(Br)cc23)cc(OC)c1OC | 51.5
5.09 | 2.65 | 8.43 |  | COc1cc(Nc2cc(F)ccc2C(=O)NCCc2c[nH]c3cc(F)ccc23)cc(OC)c1OC | 89.1
4.37 | 3.55 | 2.16 |  | COc1cc(Nc2cc(F)ccc2C(=O)NCCc2c[nH]c3cccc(Br)c23)cc(OC)c1OC | 7.97
3.56 | 2.44 | 1.94 |  | COc1cc(Nc2cc(F)ccc2C(=O)NCCc2c[nH]c3c(Br)cccc23)cc(OC)c1OC | 13.1
3.28 | 3.75 | 4.33 |  | COc1cc(Nc2cc(Br)ccc2C(=O)NCCc2c[nH]c3ccccc23)cc(OC)c1OC | > 100
3.26 | 1.99 | 1.82 |  | COc1cc(Nc2cc(F)ccc2C(=O)NCCc2c[nH]c3cccc(Cl)c23)cc(OC)c1OC | 3.02
3.1 | 2.14 | 1.84 |  | COc1cc(Nc2cc(F)ccc2C(=O)NCCc2c[nH]c3cc(Br)ccc23)cc(OC)c1OC | 22.1
2.7 | 2.9 | 2.39 |  | COc1cc(Nc2cc(F)ccc2C(=O)NCCc2c[nH]c3cccc(C)c23)cc(OC)c1OC | 3.44
2.69 | 2.6 | 1.88 |  | COc1cc(Nc2cc(Cl)ccc2C(=O)NCCc2c[nH]c3ccccc23)cc(OC)c1OC | 13.1
2.12 | 1.97 | 3.35 |  | COc1cc(Nc2cc(F)ccc2C(=O)NCCc2c[nH]c3c(C)cccc23)cc(OC)c1OC | 2.1
1.86 | 0.68 | 0.92 |  | COc1cc(Nc2cc(F)ccc2C(=O)NCCc2c[nH]c3ccc(F)c(F)c23)cc(OC)c1OC | 1.32
1.65 | 1.09 | 2.82 |  | COc1cc(Nc2cc(F)ccc2C(=O)NCCc2c[nH]c3c(Cl)cccc23)cc(OC)c1OC | 1.57
1.44 | 1.03 | 2.4 |  | COc1cc(Nc2cc(F)ccc2C(=O)NCCc2c[nH]c3ccccc23)cc(OC)c1OC | 1.46
1.38 | 0.83 | 2.4 |  | COc1cc(Nc2cc(F)ccc2C(=O)NCCc2c[nH]c3ccc(F)cc23)cc(OC)c1OC | 1.37
0.97 | 0.53 | 0.47 |  | COc1cc(Nc2cc(F)ccc2C(=O)NCCc2c[nH]c3cccc(F)c23)cc(OC)c1OC | 1.86
0.53 | 0.37 | 0.4 |  | COc1cc(Nc2cc(F)ccc2C(=O)NCCc2c[nH]c3c(F)cccc23)cc(OC)c1OC | 0.76
